Measured values from patent publication US20230061223A1, “USE OF 5-AMINO-2,3-DIHYDRO-1,4-PHTHALAZINEDIONE IN THE INHALATORY TREATMENT OF INFLAMMATORY PULMONARY DISEASES” (MetrioPharm AG, priority 2020, published 2023).
Where two headings read alike, the source gives them in different places.

Experiments:
[1] = test system: cigarette smoke-induced 3-nitrotyrosine formation in the lung parenchyma; conditions: for 3-nitrotyrosine stained surface area, mean ± SEM: n=5 mice, room air 0.24, smoke alone 3.07
Method: 5-amino-2,3-dihydro-1,4-phthalazinedione sodium salt Form I was tested in an isolated, ventilated and perfused mouse lung system that was stimulated with cigarette smoke.
The isolated, ventilated and perfused mouse lung system (ILU) is an established model for studying acute effects of various conditions and drugs on lung parenchyma and vasculature. It is mainly used for examining effects of hypoxia and for evaluating the efficacy of potential drugs on the hypoxic pulmonary vasoreaction (cf. Weissmann et al. (2006) Proc Natl Acad Sci USA 103: 19093-19098).
C57BL/6J mice (n=25, 5 per group; male/female, 3-6 months, 20-30 g; Charles River GmbH, Sulzfeld, Germany) were anesthetized with a ketamine (100 mg/kg body weight) and xylazine (20 mg/kg body weight) intraperitoneal injection (Ceva Tiergesundheit GmbH, Dusseldorf, Germany) containing heparin (50 I.E. heparin/g body weight; Ratiopharm GmbH, Ulm, Germany). The lungs and the heart were removed from the chest cavity and placed on the ILU system (see FIGS. 1A and 1B). Lungs were ventilated in an isolated chamber using normoxic gas (21% O2, 5% CO2, 74% N2; 150 breaths per minute at the PEEP (positive end-expiratory pressure) of 3 cm H2O) and perfused with a modified Krebs-Henseleit buffer (120.0 mM NaCl, 4.3 mM KCl, 1.1 mM KH2PO4, 2.4 mM CaCl2, 1.3 mM MgCl2, 13.14 mM glucose, 0.25 mM hydroxyethyl starch 200000/0.5, 25.0 mM NaHCO3 adjusted to a constant pH range of […] L-arginine; Serag-Wissner GmbH & Co. KG, Naila, Germany) at a temperature of 37° C. Lung weight, right and left ventricle pressure, as well as ventilatory pressure were monitored and recorded during the whole experimental procedure. After 5-10 minutes, when the lung was properly flushed and all the parameters were stable, 5-amino-2,3-dihydro-1,4-phthalazinedione sodium salt was applied by adding 150 μl of a stock solution to 15 ml of the circulating perfusion buffer. The substance was applied 10 minutes prior to the first cigarette smoke application. Cigarette smoke was applied via trachea while lung is perfused with the buffer containing 5-amino-2,3-dihydro-1,4-phthalazinedione sodium salt. Cigarette smoke was prepared freshly before each application, by burning one cigarette (research cigarettes 3R4F, University of Kentucky, USA) in one minute using normoxic gas at the flow of 11/min and collected in a 11 glass bottle containing 5 g silica gel for removing the moist from the cigarette smoke. 50 ml of the cigarette smoke were taken via a syringe and applied to the lung via trachea (FIG. 1A) in deep breaths (periodic inflation for 3-4 s) over a period of 5 min. The application was done manually while carefully monitoring the inspiratory pressure to avoid damage of the lung. The cigarette smoke application was repeated three times with a 1 hour break in-between.
Five treatment groups (n=5, respectively) were investigated:
C: cigarette smoke+0.5 mM 5-amino-2,3-dihydro-1,4-phthalazinedione sodium salt
D: cigarette smoke+1 mM 5-amino-2,3-dihydro-1,4-phthalazinedione sodium salt
E: cigarette smoke+2 mM 5-amino-2,3-dihydro-1,4-phthalazinedione sodium salt
5-amino-2,3-dihydro-1,4-phthalazinedione sodium salt Form I was dissolved in water for injection (vehicle) at the required concentrations described above. Stock solutions were prepared in water for injection. Further 1:100 dilutions were made with modified Krebs-Henseleit buffer (see above). Stock solutions were stored at −70° C. in appropriate aliquots. The required amount of stock solution was thawed, and the corresponding working solution was prepared for immediate use.
One hour after the third cigarette smoke application lungs were removed from the system and fixed by inflating with formalin solution (via trachea) at the pressure of 12-15 cm H2O for two hours at room temperature. Afterwards the fixed lungs were kept in PBS (phosphate buffer saline, see below) at +4° C. until further dehydration and paraffin embedding.

[2] = aerosol characterisation (MMAD, FPF, FPM) by cascade impactor (Next Generation Impactor) after vibrating mesh nebulization; type: physicochemical; conditions: for FPF (fine particle fraction, <5 μm) / FPM (fine particle mass, 1 μm to 5 μm) / MMAD: vibrating mesh nebulizer; for FPF (fine particle fraction, <5 μm) / FPM (fine particle mass, 1 μm to 5 μm) / MMAD / released dosage: NGI at 4° C.; for released dosage at the mouthpiece as percentage of the nominal value: 3 min nebulization; for released dosage: at the mouthpiece, M-neb dose+ mesh nebulizer; for time of aerosol release: corresponds to 30 strokes/breaths; for residual amounts in the mouthpiece: mouthpiece SK-211
Method: It is expressly stated that the values and ranges disclosed herein refer to measurements of the MMAD, FPF and FPM by means of a cascade impactor (Next Generation Impactor, NGI) cooled down to 4° C.
The particle size distribution (FPM) and the mass median aerodynamic diameter (MMAD) of an aerosol generated from an aqueous solution containing 5-amino-2,3-dihydro-1,4-phthalazinedione sodium salt was analyzed.
Crystalline polymorph Form I of 5-amino-2,3-dihydro-1,4-phthalazinedione sodium salt was solved in physiological saline solution (double distilled water containing 0.9% NaCl). The final concentration solution was 20 mg/ml 5-amino-2,3-dihydro-1,4-phthalazinedione sodium salt.
The experimental procedure was carried out pursuant to Ph. Eur. 2.9.44 (Preparations for Nebulisation: Characterisation). A cascade impactor (Next Generation Impactor (NGI), Copley Scientific Ltd., Nottingham, UK) was used to determine the respective percentage for each fraction of the nebulized particles. The cascade impactor was cooled to 4° C. for the measurements
The nebulization of this aqueous solution of 5-amino-2,3-dihydro-1,4-phthalazinedione sodium salt was carried out by means of a vibrating mesh nebulizer (M-neb-dose+, NEBU-TEC, Eisenfeld, Germany). The thus generated aerosol was delivered to the cascade impactor by means of a mouthpiece (SK-211, NEBU-TEC, Eisenfeld, Germany).
The nebulization chamber (yellow stamp, 250 μl liquid discharge) was filled. The puff profile configured at the breath simulator was chosen in such a way that a correct simulation of inhalation by means of the nebulizer was ensured. The corresponding time was recorded.
The quantification of nebulized 5-amino-2,3-dihydro-1,4-phthalazinedione sodium salt per cascade was carried out after extraction from the cascade pans (stage 1-8) by means of HPLC with reference to an external standard calibration curve (range 0-200 μg/ml; correlation coefficient: 0.9999).
Single values obtained for each cascade were added. […] MMAD, FPF and FPM were calculated from the obtained values: […]
For comparison, the particle size distribution (FPF and FPM) and the mass median aerodynamic diameter (MMAD) of an aerosol generated from a physiological saline solution containing salbutamol sulfate was analyzed (not part of the invention). The procedure was the same as described in Example 2.
Salbutamol is one of the most widely used substances for acute asthma attacks. It is often administered via metered-dose inhalers. Therefore, a physiological saline solution of salbutamol sulfate was tested in order to determine the particle size distribution. The standard dosage (Albutol Sulfate) of 180 μg (90 μg/spray application, 2 spray applications per inhalation session) was dissolved in physiological saline.
The procedure was the same as described in Example 2.
The standard dosage (Atrovent) of 18 μg/spray application was dissolved in physiological saline.

[3] = 20 mg/ml in physiological saline
[4] = aerosol from physiological saline solution
[5] = standard dosage in physiological saline

Nc1cccc2c(=O)[nH][nH]c(=O)c12.[Na] [5-amino-2,3-dihydro-1,4-phthalazinedione sodium salt]
effect on cigarette smoke induced 3-nitrotyrosine formation (in words) ([1]; 0.5 mM in perfusion buffer): moderate effect | effect on cigarette smoke induced 3-nitrotyrosine formation (in words) ([1]; 1 mM in perfusion buffer): almost completely abolished | effect on cigarette smoke induced 3-nitrotyrosine formation (in words) ([1]; 2 mM in perfusion buffer): almost completely abolished | cigarette smoke-induced 3-nitrotyrosine formation in the lung parenchyma, pre-treatment (in words) ([1]; ILU model, pre-treatment): prevents | 3-nitrotyrosine stained surface area, mean ± SEM ([1]; cigarette smoke + 0.5 mM in perfusion buffer): 2.24 ± 0.28 % area | 3-nitrotyrosine stained surface area, mean ± SEM ([1]; cigarette smoke + 1 mM in perfusion buffer): 0.72 ± 0.26 % area | 3-nitrotyrosine stained surface area, mean ± SEM ([1]; cigarette smoke + 2 mM in perfusion buffer): 0.37 ± 0.13 % area | ROS/RNS levels in cigarette smoke-stimulated mouse lung (in words) ([1]; ex vivo mouse lung, 0.5-2 mM): dose-dependent reduction of ROS/RNS levels down to control levels | FPF (fine particle fraction, <5 μm) [2, 3]: 3.5 mg | FPM (fine particle mass, 1 μm to 5 μm) [2, 3]: 3300 µg | released dosage at the mouthpiece as percentage of the nominal value [2]: 95% | FPF (fine particle fraction, <5 μm) [2, 4]: 74.3% | MMAD [2, 4]: 3.1 μm | FPM (fine particle mass, 1 μm to 5 μm) ([2]; aerosol from physiological saline solution, sodium salt): 69.0% | released dosage [2, 3]: 4700 µg | time of aerosol release [2]: 3 min | residual amounts in the mouthpiece [2]: No residual amounts | FPF in comparison ([2]; versus ipratropium bromide): slightly higher | FPM in comparison ([2]; versus ipratropium bromide): slightly smaller | MMAD in comparison ([2]; versus ipratropium bromide): clearly smaller | FPF in comparison ([2]; versus salbutamol sulfate): slightly higher | FPM in comparison ([2]; versus salbutamol sulfate): in a similar range | MMAD in comparison ([2]; versus salbutamol sulfate): clearly smaller

CC(C)[N+]1(C)[C@@H]2CC[C@H]1CC(OC(=O)C(CO)c1ccccc1)C2.[Br-] (stereo partly drawn) [ipratropium bromide, reference compound]
released dosage at the mouthpiece as percentage of the nominal value [2]: 86% | FPM (fine particle mass, 1 μm to 5 μm) [2, 4]: 69.4% | MMAD [2, 4]: 3.59 μm | released dosage [2, 5]: 15 µg | time of aerosol release [2]: 3 min | residual amounts in the mouthpiece [2]: No residual amounts | FPM (fine particle mass, 1 μm to 5 μm) [2, 5]: 10 µg

salbutamol sulfate [reference compound]
released dosage at the mouthpiece as percentage of the nominal value [2]: 92% | FPF (fine particle fraction, <5 μm) [2, 4]: 73.3% | FPM (fine particle mass, 1 μm to 5 μm) [2, 4]: 69.1% | MMAD [2, 4]: 3.57 μm | released dosage [2, 5]: 166 µg | time of aerosol release [2]: 3 min | residual amounts in the mouthpiece [2]: No residual amounts | FPF (fine particle fraction, <5 μm) [2, 5]: 0.122 mg | FPM (fine particle mass, 1 μm to 5 μm) [2, 5]: 115 µg
